Assay results taken from US9409952B2, “Peptide-compound cyclization method” (Chugai Seiyaku Kabushiki Kaisha, priority 2011, dated 2016).
Like-named read-outs stand apart in the source and are kept apart here. Starred links: 1 amine or outer side, 2 acyl side, 3 side chain; linkers in the order of their positions; H or OH if unused. Positions of bridges follow the written chain, without caps; N, C: chain ends. Non-standard residues stand in square brackets, D forms with d. Residues, ends and D or L forms follow the SMILES beside them. ξ: configuration not given here. *: point of attachment. NMePhe(3-Cl) = CN[C@@H](Cc1cccc(Cl)c1)C(=O)O; NMeF = CN[C@@H](Cc1ccccc1)C(=O)O; NMeGABA = CN(CCCC(=O)[*:2])[*:1]; NMeI = CC[C@H](C)[C@H](NC)C(=O)O; NMeβAla = CN(CCC(=O)[*:2])[*:1]; NMeL = CN[C@@H](CC(C)C)C(=O)O; ξNMeF = CNC(Cc1ccccc1)C(=O)O; NMeV = CN[C@H](C(=O)O)C(C)C; NMeA = CN[C@@H](C)C(=O)O; Piperidide = C1CCN(*)CC1; β3hA = C[C@H](N)CC(=O)O; NPrGly = CCCNCC(=O)O; Sar = CNCC(=O)O; tBu = CC(C)(C)*

Columns and labels:
[1] = PAMPA (parallel artificial membrane permeability assay); type: in vitro ADME; details: for Papp at 18 hours, 50 µM: PAMPA
Outline: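 Artificial membrane was 10% (w/v) egg lecithin plus 0.5% (w/v) cholesterol in dodecane on a PVDF filter. A 10 mM DMSO stock was added at 0.5% (v/v) to donor buffer (50 mM MOPSO, pH 6.5, 5.0% glycocholic acid). After 18 h at 37 °C, LC/MS or LC/UV gave donor and acceptor levels for Pe.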

[2] = Metabolic stability in human hepatic microsome; type: in vitro ADME; details: microsomes
[3] = membrane permeation rate (Pe), 50 mM MOPSO buffer pH 6.5 with 5.0% glycocholic acid, 37° C., 18 hours, read-out: iPAMPA Pe
[4] = pH 7.4, human hepatic microsome, NADPH(+), read-out: CL NADPH(+)

CC(C)C[C@H]1C(=O)NCC(=O)N[C@H](C(=O)N2CCCCC2)CC(=O)N(C)CCC(=O)N[C@@H]([C@@H](C)O)C(=O)N(C)[C@@H](C)C(=O)N[C@@H](COC(C)(C)C)C(=O)N(C)[C@@H](Cc2ccccc2)C(=O)N1C [DP-522] ([NMeβAla]T[NMeA]S(tBu)[NMeF][NMeL]GD-Piperidide; lactam N-8)
Papp at 18 hours, 50 µM [1, 3]: 5.3 ×10⁻⁶ cm/s
microsomal CLint at 1 uM [2, 4]: 87 µL/min/mg

CC(C)C[C@H]1C(=O)N(C)[C@@H](CC(C)C)C(=O)N[C@@H]([C@@H](C)O)C(=O)N(C)[C@@H](Cc2ccccc2)C(=O)NCC(=O)N(C)[C@@H](C(C)C)C(=O)N[C@@H](Cc2ccccc2)C(=O)N[C@@H](C)CC(=O)N(C)CCC(=O)N[C@@H](COC(C)(C)C)C(=O)N1C [DP-777] (cyclo(F[β3hA][NMeβAla]S(tBu)[NMeL][NMeL]T[NMeF]G[NMeV]))
Papp at 18 hours, 50 µM [1, 3]: 39 ×10⁻⁶ cm/s
microsomal CLint at 1 uM [2, 4]: 428 µL/min/mg

CC[C@H](C)[C@@H]1NC(=O)[C@H](CC(C)C)N(C)C(=O)[C@H](Cc2ccccc2)N(C)C(=O)[C@@H](C(C)C)NC(=O)C[C@@H](C(=O)N2CCCCC2)NC(=O)[C@H](CC(C)C)N(C)C(=O)[C@H](C)N(C)C(=O)[C@H]([C@@H](C)O)NC(=O)[C@H](Cc2ccccc2)N(C)C(=O)[C@H](C)N(C)C1=O [DP-255] ([dV][NMeF][NMeL]I[NMeA][NMeF]T[NMeA][NMeL]D-Piperidide; lactam N-10)
Papp at 18 hours, 50 µM [1, 3]: 48 ×10⁻⁶ cm/s
microsomal CLint at 1 uM [2, 4]: 79 µL/min/mg

CC(C)C[C@H]1C(=O)N[C@@H](C(C)C)C(=O)N[C@H](C(=O)N(C)C(Cc2ccccc2)C(=O)N(C)[C@@H](Cc2ccccc2)C(=O)N[C@@H](C)C(=O)N2CCCCC2)CC(=O)N[C@H](C)C(=O)N(C)[C@@H](C)C(=O)N(C)[C@@H](Cc2ccccc2)C(=O)N(C)[C@@H](CC(C)C)C(=O)N[C@@H]([C@@H](C)O)C(=O)N(C)CC(=O)N1C (stereo partly drawn) [DP-315] ([dA][NMeA][NMeF][NMeL]T[Sar][NMeL]VD[ξNMeF][NMeF]A-Piperidide; lactam N-9)
Papp at 18 hours, 50 µM ([1]; pH 6.5): 30 ×10⁻⁶ cm/s
microsomal CLint at 1 uM ([2]; human, pH 7.4, CL NADPH(+)): 63 µL/min/mg

CC[C@H](C)[C@@H]1NC(=O)[C@H](CC(C)C)N(C)C(=O)[C@H](C)N(C)C(=O)[C@H]([C@@H](C)O)NC(=O)[C@H](C)N(C)C(=O)[C@H](C(C)C)N(C)C(=O)[C@H](Cc2ccccc2)NC(=O)CCN(C)C(=O)C[C@@H](C(=O)N(C)[C@@H](Cc2ccccc2)C(=O)N[C@@H](C)C(=O)N2CCCCC2)NC(=O)[C@H](C)N(C)C1=O [DP-490] ([NMeβAla]F[NMeV][NMeA]T[NMeA][NMeL]I[NMeA]D[NMeF]A-Piperidide; lactam N-10)
Papp at 18 hours, 50 µM [1, 3]: 11 ×10⁻⁶ cm/s
microsomal CLint at 1 uM [2, 4]: 27 µL/min/mg

CC(C)C[C@H]1C(=O)NCC(=O)N[C@@H](C)CC(=O)N(C)CCC(=O)N[C@@H]([C@@H](C)O)C(=O)N(C)[C@@H](C)C(=O)N[C@@H](COC(C)(C)C)C(=O)N(C)[C@@H](Cc2ccccc2)C(=O)N1C [DP-794] (cyclo(G[β3hA][NMeβAla]T[NMeA]S(tBu)[NMeF][NMeL]))
Papp at 18 hours, 50 µM [1, 3]: 3.7 ×10⁻⁶ cm/s
microsomal CLint at 1 uM [2, 4]: 43 µL/min/mg

CC[C@H](C)[C@H]1C(=O)N(C)[C@@H](C(C)C)C(=O)N(C)CC(=O)N[C@@H]([C@@H](C)O)C(=O)N[C@H](C(=O)N2CCCCC2)CC(=O)N[C@H](C)C(=O)N(C)[C@@H](C)C(=O)N(C)[C@@H](CC(C)C)C(=O)N[C@@H](CC(C)C)C(=O)N(C)[C@@H](Cc2ccccc2)C(=O)N[C@@H](Cc2ccccc2)C(=O)N1C [DP-98] ([dA][NMeA][NMeL]L[NMeF]F[NMeI][NMeV][Sar]TD-Piperidide; lactam N-11)
Papp at 18 hours, 50 µM [1, 3]: 26 ×10⁻⁶ cm/s
microsomal CLint at 1 uM [2, 4]: 27 µL/min/mg

CNC(=O)CC[C@@H]1NC(=O)[C@H](CC(C)C)N(C)C(=O)[C@H](C)N(C)C(=O)[C@@H](C(C)C)NC(=O)C[C@@H](C(=O)N2CCCCC2)NC(=O)[C@H]([C@@H](C)O)NC(=O)[C@H](C)N(C)C(=O)CN(C)C(=O)[C@H](CC(C)C)N(C)C(=O)[C@H](Cc2ccccc2)NC(=O)[C@H](Cc2ccccc2)N(C)C1=O [DP-627] ([dV][NMeA][NMeL]E(NHMe)[NMeF]F[NMeL][Sar][NMeA]TD-Piperidide; lactam N-11)
Papp at 18 hours, 50 µM [1, 3]: 2.4 ×10⁻⁶ cm/s
microsomal CLint at 1 uM [2, 4]: 9 µL/min/mg

CC(C)C[C@H]1C(=O)N(C)[C@@H](CC(C)C)C(=O)N[C@H](C(=O)N2CCCCC2)CC(=O)N(C)CCCC(=O)N(C)[C@@H](Cc2ccccc2)C(=O)N[C@@H]([C@@H](C)O)C(=O)N(C)[C@@H](C)C(=O)N[C@@H](COC(C)(C)C)C(=O)N1C [DP-685] ([NMeGABA][NMeF]T[NMeA]S(tBu)[NMeL][NMeL]D-Piperidide; lactam N-8)
Papp at 18 hours, 50 µM [1, 3]: 28 ×10⁻⁶ cm/s
microsomal CLint at 1 uM [2, 4]: 90 µL/min/mg

CC[C@H](C)[C@H](NC(=O)[C@H](CC(C)C)N(C)C(=O)CN(C)C(=O)[C@H](C)N(C)C(=O)[C@H](Cc1ccccc1)N(C)C(=O)[C@@H]1CC(=O)N[C@H](C(C)C)C(=O)N[C@@H](C(C)C)C(=O)N[C@@H]([C@@H](C)O)C(=O)N[C@@H](CC(C)C)C(=O)N[C@@H](Cc2ccccc2)C(=O)N(C)[C@@H](CC(C)C)C(=O)N(C)[C@@H](Cc2cccc(Cl)c2)C(=O)N1)C(=O)N1CCCCC1 [DP-924] ([dV]VTLF[NMeL][NMePhe(3-Cl)]D[NMeF][NMeA][Sar][NMeL]I-Piperidide; lactam N-8)
Papp at 18 hours, 50 µM [1, 3]: 0.1 ×10⁻⁶ cm/s
microsomal CLint at 1 uM [2, 4]: 19 µL/min/mg

CC(C)C[C@H]1C(=O)NCC(=O)N[C@H](C(=O)N2CCCCC2)CC(=O)N(C)[C@@H](C)C(=O)N[C@@H]([C@@H](C)O)C(=O)N(C)[C@@H](C)C(=O)N(C)[C@@H](Cc2ccccc2)C(=O)N[C@@H](COC(C)(C)C)C(=O)N(C)[C@@H](Cc2ccccc2)C(=O)N1C [DP-79] ([NMeA]T[NMeA][NMeF]S(tBu)[NMeF][NMeL]GD-Piperidide; lactam N-9)
Papp at 18 hours, 50 µM ([1]; pH 6.5): 28 ×10⁻⁶ cm/s
microsomal CLint at 1 uM ([2]; human, pH 7.4, CL NADPH(+)): 145 µL/min/mg

CC[C@H](C)[C@H]1C(=O)N[C@@H](C)C(=O)N[C@@H](Cc2ccccc2)C(=O)N(C)[C@@H](Cc2ccccc2)C(=O)N[C@@H]([C@@H](C)O)C(=O)N(C)[C@@H](C)C(=O)N[C@@H](CC(C)C)C(=O)N[C@H](C(=O)N2CCCCC2)CC(=O)N[C@H](C(C)C)C(=O)N(C)[C@@H](C(C)C)C(=O)NCC(=O)N(C)[C@@H](CC(C)C)C(=O)N1C [DP-217] ([dV][NMeV]G[NMeL][NMeI]AF[NMeF]T[NMeA]LD-Piperidide; lactam N-12)
Papp at 18 hours, 50 µM [1, 3]: 38 ×10⁻⁶ cm/s
microsomal CLint at 1 uM [2, 4]: 37 µL/min/mg

C=C1CCC(=O)N[C@@H](CC(C)C)C(=O)N[C@@H](C(C)C)C(=O)N(C)[C@@H](CC(C)C)C(=O)N[C@@H](Cc2ccccc2)C(=O)N(C)[C@@H](Cc2ccccc2)C(=O)N[C@@H]([C@@H](C)CC)C(=O)N(C)[C@@H](C)C(=O)N[C@@H](CC(C)C)C(=O)N[C@@H]([C@@H](C)O)C(=O)N[C@H](C(=O)N2CCCCC2)Cc2ccc1cc2 [DP-888]
Papp at 18 hours, 50 µM [1, 3]: 0.81 ×10⁻⁶ cm/s
microsomal CLint at 1 uM [2, 4]: 69 µL/min/mg

CCCN1CC(=O)N(C)[C@@H](Cc2ccccc2)C(=O)N(C)[C@@H](Cc2ccccc2)C(=O)N(C)[C@@H](CC(C)C)C(=O)N2CCC[C@H]2C(=O)N(C)[C@@H](CC(C)C)C(=O)N[C@@H](C)C(=O)N(C)[C@@H](C(C)C)C(=O)N[C@H](C(=O)N2CCCCC2)CC(=O)N(C)[C@@H](C)C(=O)N[C@@H]([C@@H](C)O)C1=O [DP-541] ([NMeA]T[NPrGly][NMeF][NMeF][NMeL]P[NMeL]A[NMeV]D-Piperidide; lactam N-11)
Papp at 18 hours, 50 µM ([1]; pH 6.5): 23 ×10⁻⁶ cm/s
microsomal CLint at 1 uM ([2]; human, pH 7.4, CL NADPH(+)): 22 µL/min/mg

CC[C@H](C)[C@@H]1NC(=O)[C@H](CC(C)C)N(C)C(=O)[C@H](Cc2ccccc2)N(C)C(=O)CN(C)C(=O)[C@H](C)N(C)C(=O)[C@H](Cc2ccccc2)N(C)C(=O)[C@H](C)N(C)C(=O)[C@H]([C@@H](C)O)NC(=O)[C@H](C(C)C)N(C)C(=O)CCN(C)C(=O)C[C@@H](C(=O)N2CCCCC2)NC1=O [DP-516] ([NMeβAla][NMeV]T[NMeA][NMeF][NMeA][Sar][NMeF][NMeL]ID-Piperidide; lactam N-11)
Papp at 18 hours, 50 µM [1, 3]: 9.1 ×10⁻⁶ cm/s
microsomal CLint at 1 uM [2, 4]: 19 µL/min/mg

CC[C@H](C)[C@@H]1NC(=O)CCCN(C)C(=O)C[C@@H](C(=O)N(C)[C@@H](Cc2ccccc2)C(=O)N(C)[C@@H](Cc2ccccc2)C(=O)N[C@@H](C)C(=O)N2CCCCC2)NC(=O)[C@H](C(C)C)N(C)C(=O)[C@H](CC(C)C)N(C)C(=O)[C@H](C)NC(=O)CN(C)C(=O)[C@H]([C@@H](C)O)NC(=O)[C@H](Cc2ccccc2)N(C)C(=O)[C@H](C)N(C)C1=O [DP-392] ([NMeGABA]I[NMeA][NMeF]T[Sar]A[NMeL][NMeV]D[NMeF][NMeF]A-Piperidide; lactam N-10)
Papp at 18 hours, 50 µM [1, 3]: 20 ×10⁻⁶ cm/s
microsomal CLint at 1 uM [2, 4]: 18 µL/min/mg

CC[C@H](C)[C@@H]1NC(=O)CCN(C)C(=O)C[C@@H](C(=O)N(C)[C@@H](Cc2ccccc2)C(=O)N(C)[C@@H](Cc2ccccc2)C(=O)N[C@@H](C)C(=O)N2CCCCC2)NC(=O)[C@H](C(C)C)N(C)C(=O)[C@H](C)NC(=O)[C@H](CC(C)C)N(C)C(=O)CN(C)C(=O)[C@H]([C@@H](C)O)NC(=O)[C@H](C)N(C)C(=O)[C@H](Cc2ccccc2)N(C)C1=O [DP-495] ([NMeβAla]I[NMeF][NMeA]T[Sar][NMeL]A[NMeV]D[NMeF][NMeF]A-Piperidide; lactam N-10)
Papp at 18 hours, 50 µM [1, 3]: 21 ×10⁻⁶ cm/s
microsomal CLint at 1 uM [2, 4]: 7 µL/min/mg

CC[C@H](C)[C@@H]1NC(=O)[C@H](C(C)C)NC(=O)[C@H](Cc2ccccc2)N(C)C(=O)[C@H](C(C)C)NC(=O)[C@H](CC(C)C)N(C)C(=O)[C@H](C)NC(=O)C[C@@H](C(=O)N(C)[C@@H](Cc2ccccc2)C(=O)N(C)[C@@H](CC(C)C)C(=O)N[C@H](C(=O)N(C)[C@@H](CC(C)C)C(=O)N[C@H](C(=O)N2CCCCC2)[C@@H](C)CC)[C@@H](C)O)NC1=O [DP-913] (A[NMeL]V[NMeF]VID[NMeF][NMeL]T[NMeL]I-Piperidide; lactam N-7)
iPAMPA Pe ([1]; membrane permeation rate (Pe), 50 mM MOPSO buffer pH 6.5 with 5.0% glycocholic acid, 37° C., 18 hours): 1.0E−07
microsomal CLint at 1 uM [2, 4]: 30 µL/min/mg
